# In patent publication US6858591B2, “Antibiotic AA 896 analogs” (Wyeth Holdings Corporation, priority 2001, dated 2005):
# How the values were obtained:
# Experiment in all cases: In vitro MIC, broth dilution
# Assay type in all cases: cell-based
# [1] = tested on: E. coli GC 2203; conditions: Escherichia coli, GC2203; E. coli GC 2203; read-out: MIC
# [2] = tested on: E. cloacae GC 3783; conditions: Enterobacter cloacae, GC3783; E. cloacae GC 3783; read-out: MIC
# [3] = tested on: M. morganii GC 4531; conditions: Morganella morganii, GC4531; M. morganii GC 4531; read-out: MIC
# [4] = tested on: E. coli GC 4559; conditions: Escherichia coli, GC4559; E. coli GC 4559; read-out: MIC
# [5] = tested on: E. faecalis GC 4555; conditions: Enterococcus faecalis, GC4555; E. faecalis GC 4555; read-out: MIC
# In short: (§1)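 MIC = lowest antibiotic concentration preventing visible growth after 18 h at 35 °C, ambient air. Inoculum 5×10^5 CFU/ml; drug tested 64-0.06 μg/ml in Mueller-Hinton II broth following NCCLS guidance.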
# [6] = tested on: S. aureus GC 4536; conditions: Staphylococcus aureus, GC4536; S. aureus GC 4536; read-out: MIC
# In short: as §1
# [7] = tested on: S. aureus GC 2216; conditions: Staphylococcus aureus, GC2216; S. aureus GC 2216; read-out: MIC
# In short: as §1
# [8] = tested on: CNS GC 4538; conditions: CNS GC 4538; read-out: MIC
# In short: as §1
# [9] = tested on: S. aureus GC 1131; conditions: Staphylococcus aureus, GC1131; S. aureus GC 1131; read-out: MIC
# In short: as §1
# [10] = tested on: E. faecalis GC 2242; conditions: Enterococcus faecalis, GC2242; E. faecalis GC 2242; read-out: MIC
# In short: as §1
# [11] = tested on: E. faecalis GC 842; conditions: Enterococcus faecalis, GC842; E. faecalis GC 842; read-out: MIC
# In short: as §1
# [12] = tested on: CNS GC 4547; conditions: CNS GC 4547; read-out: MIC
# In short: as §1
# [13] = tested on: CNS GC 4537; conditions: CNS GC 4537; read-out: MIC
# In short: as §1
# [14] = tested on: P. aeruginosa GC 4532; conditions: Pseudomonas aeruginosa, GC4532; P. aeruginosa GC 4532; read-out: MIC
# [15] = tested on: C. albicans GC 3066; conditions: Candida albicans, GC3066; C. albicans GC 3066; read-out: MIC
# [16] = tested on: E. coli GC 3226; conditions: Escherichia coli, GC3226; E. coli GC 3226; read-out: MIC
# [17] = tested on: K. pneumoniae GC 4534; conditions: Klebsiella pneumoniae, GC4534; K. pneumoniae GC 4534; read-out: MIC
# [18] = tested on: S. marcescens GC 4077; conditions: Serratia marcescens, GC4077; S. marcescens GC 4077; read-out: MIC
# [19] = tested on: E. coli GC 4560; conditions: Escherichia coli, GC4560; E. coli GC 4560; read-out: MIC
# [20] = tested on: P. aeruginosa GC 2214; conditions: Pseudomonas aeruginosa, GC2214; P. aeruginosa GC 2214; read-out: MIC
SMILES,MIC [1],MIC [2],MIC [3],MIC [4],MIC [5],MIC [6],MIC [7],MIC [8],MIC [9],MIC [10],MIC [11],MIC [12],MIC [13],MIC [14],MIC [15],MIC [16],MIC [17],MIC [18],MIC [19],MIC [20]
"COc1ccc(Cn2c(=O)ccn([C@@H]3OC([C@H](O)[C@H](NCCCNC(=O)[C@H](CC(C)C)NC(=O)OCc4ccccc4)C(=O)O)[C@@H](O)[C@H]3O)c2=O)cc1 (stereo partly drawn) [Example 52, (5S,12S)-12-[(R)-[(3S,4R,5R)-3,4-Dihydroxy-5-(3-(4-methoxybenzyl)-2,4-dioxo-3,4-dihydro-1(2H)-pyrimidinyl)tetrahydro-2-furanyl](hydroxy)methyl]-5-isobutyl-3,6-dioxo-1-phenyl-2-oxa-4,7,11-triazatridecan-13-oic acid]",> 128 µg/mL,> 128 µg/mL,128 µg/mL,> 128 µg/mL,128 µg/mL,> 128 µg/mL,> 128 µg/mL,> 128 µg/mL,> 128 µg/mL,128 µg/mL,128 µg/mL,> 128 µg/mL,> 128 µg/mL,128 µg/mL,128 µg/mL,> 128 µg/mL,> 128 µg/mL,128 µg/mL,128 µg/mL,128 µg/mL
"COc1ccc(Cn2c(=O)ccn([C@@H]3OC([C@H](O)[C@H](NCCCNC(=O)[C@@H](N)CC(C)C)C(=O)O)[C@@H](O)[C@H]3O)c2=O)cc1 (stereo partly drawn) [Example 53, (2S,3R)-2-[(3-{[(2S)-2-Amino-4-methylpentanoyl]amino}propyl)amino]-3-[(3S,4R,5R)-3,4-dihydroxy-5-(3-(4-methoxybenzyl)-2,4-dioxo-3,4-dihydro-1(2H)-pyrimidinyl)tetrahydro-2-furanyl]-3-hydroxypropanoic acid]",> 128 µg/mL,> 128 µg/mL,> 128 µg/mL,> 128 µg/mL,128 µg/mL,> 128 µg/mL,> 128 µg/mL,> 128 µg/mL,> 128 µg/mL,128 µg/mL,128 µg/mL,> 128 µg/mL,> 128 µg/mL,128 µg/mL,128 µg/mL,> 128 µg/mL,> 128 µg/mL,> 128 µg/mL,128 µg/mL,128 µg/mL
"COc1ccc(Cn2c(=O)ccn([C@@H]3OC([C@H](O)[C@H](NCCCNC(=O)[C@@H](N)CC(C)C)C(=O)OC(C)(C)C)[C@@H](O)[C@H]3O)c2=O)cc1 (stereo partly drawn) [Example 54, tert-Butyl (2S,3R)-2-[(3-{[(2S)-2-amino-4-methylpentanoyl]amino}propyl)amino]-3-[(3S,4R,5R)-3,4-dihydroxy-5-(3-(4-methoxybenzyl)-2,4-dioxo-3,4-dihydro-1(2H)-pyrimidinyl)tetrahydro-2-furanyl]-3-hydroxypropanoate]",> 128 µg/mL,> 128 µg/mL,128 µg/mL,> 128 µg/mL,> 128 µg/mL,> 128 µg/mL,> 128 µg/mL,> 128 µg/mL,> 128 µg/mL,128 µg/mL,128 µg/mL,> 128 µg/mL,> 128 µg/mL,> 128 µg/mL,> 128 µg/mL,> 128 µg/mL,> 128 µg/mL,> 128 µg/mL,128 µg/mL,128 µg/mL
"CC(C)C[C@H](NC(=O)OCc1ccccc1)C(=O)NCCCN[C@H](C(=O)O)[C@@H](O)C1O[C@@H](n2ccc(=O)[nH]c2=O)[C@H](O)[C@@H]1O (stereo partly drawn) [Example 55, (5S,12S)-12-[(R)-[(3S,4R,5R)-5-(2,4-Dioxo-3,4-dihydro-1(2H)-pyrimidinyl)-3,4-dihydroxy-tetrahydro-2-furanyl](hydroxy)methyl]-5-isobutyl-3,6-dioxo-1-phenyl-2-oxa-4,7,11-triazatridecan-13-oic acid]",128 µg/mL,128 µg/mL,128 µg/mL,> 128 µg/mL,128 µg/mL,> 128 µg/mL,> 128 µg/mL,> 128 µg/mL,> 128 µg/mL,128 µg/mL,128 µg/mL,> 128 µg/mL,> 128 µg/mL,128 µg/mL,128 µg/mL,128 µg/mL,128 µg/mL,128 µg/mL,128 µg/mL,128 µg/mL
"COc1ccc(Cn2c(=O)ccn([C@@H]3OC([C@H](O)[C@H](NCCCNC(=O)[C@@H](CC(C)C)NC(=O)OCc4ccccc4)C(=O)OC(C)(C)C)[C@@H](O[Si](C)(C)C(C)(C)C)[C@H]3O[Si](C)(C)C(C)(C)C)c2=O)cc1 (stereo partly drawn) [Example 56, tert-Butyl (5R,12S)-12-[(R)-[(3R,4R,5R)-3,4-bis{[tert-butyl(dimethyl)silyl]oxy}-5-(3-(4-methoxybenzyl)-2,4-dioxo-3,4-dihydro-1(2H)-pyrimidinyl)tetrahydro-2-furanyl](hydroxy)methyl]-5-isobutyl-3,6-dioxo-1-phenyl-2-oxa-4,7,11-triazatridecan-13-oate]",> 128 µg/mL,> 128 µg/mL,128 µg/mL,> 128 µg/mL,> 128 µg/mL,> 128 µg/mL,> 128 µg/mL,> 128 µg/mL,> 128 µg/mL,128 µg/mL,> 128 µg/mL,> 128 µg/mL,> 128 µg/mL,128 µg/mL,> 128 µg/mL,> 128 µg/mL,> 128 µg/mL,> 128 µg/mL,> 128 µg/mL,128 µg/mL
COc1ccc(Cn2c(=O)ccn([C@@H]3OC([C@H](O)[C@H](NCCCNC(=O)[C@H](N)CC(C)C)C(=O)OC(C)(C)C)[C@@H](O[Si](C)(C)C(C)(C)C)[C@H]3O[Si](C)(C)C(C)(C)C)c2=O)cc1 (stereo partly drawn) [Example 57],> 128 µg/mL,128 µg/mL,128 µg/mL,> 128 µg/mL,4 µg/mL,8 µg/mL,32 µg/mL,4 µg/mL,64 µg/mL,4 µg/mL,8 µg/mL,64 µg/mL,4 µg/mL,128 µg/mL,128 µg/mL,> 128 µg/mL,> 128 µg/mL,128 µg/mL,128 µg/mL,128 µg/mL
